Source: ChEMBL document CHEMBL1201862, “PubChem BioAssay data set” (2004)
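Each compound was tested at five concentrations against cells in 96-well plates for 48 hours. The concentration for 50% growth inhibition is given as GI50.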 The source made the active and inactive calls. Cut-off read from the data, not from the text of the source: active = GI50 up to about 1.1 µM and inactive = higher.

How the values were obtained:
Assay in all cases: inhibition of tumour cell growth, NCI panel, 48 h
HOP-18 = system: HOP-18
HL-60 = system: HL-60
UACC-257 = system: UACC-257
NCI-H460 = system: NCI-H460
SK-MEL-5 = system: SK-MEL-5
ACHN = system: ACHN
DMS-114 = system: DMS-114
SK-MEL-2 = system: SK-MEL-2
LXFL 529 = system: LXFL 529
KM-20L2 = system: KM-20L2
SNB-78 = system: SNB-78
MOLT-4 = system: MOLT-4
HOP-62 = system: HOP-62
COLO 205 = system: COLO 205
CAKI-1 = system: CAKI-1
HCC 2998 = system: HCC 2998
NCI-H23 = system: NCI-H23
SNB-19 = system: SNB-19
A549 = system: A549
U-251 = system: U-251
RXF 631 = system: RXF 631
K562 = system: K562
KM12 = system: KM12
RPMI-8226 = system: RPMI-8226
SF-295 = system: SF-295
UO-31 = system: UO-31
DLD-1 = system: DLD-1
A498 = system: A498
IGROV-1 = system: IGROV-1
HT-29 = system: HT-29
EKVX = system: EKVX
OVCAR-3 = system: OVCAR-3
SF-268 = system: SF-268
SF-539 = system: SF-539
M14 = system: M14
SK-MEL-28 = system: SK-MEL-28
XF498 = system: XF498
SK-OV-3 = system: SK-OV-3
HOP-92 = system: HOP-92
LOX IMVI = system: LOX IMVI
OVCAR-5 = system: OVCAR-5
OVCAR-4 = system: OVCAR-4
CCRF-CEM = system: CCRF-CEM
TK-10 = system: TK-10
SW-620 = system: SW-620
HCT-15 = system: HCT-15
Malme-3M = system: Malme-3M
NCI-H226 = system: NCI-H226
786-0 = system: 786-0
DMS-273 = system: DMS-273
OVCAR-8 = system: OVCAR-8
SN12C = system: SN12C
SNB-75 = system: SNB-75
UACC-62 = system: UACC-62
NCI-H522 = system: NCI-H522
RXF 393 = system: RXF 393
M19-MEL = system: M19-MEL
HCT-116 = system: HCT-116

COC(=O)c1ccc(C(=O)OC)c2nc3cc(C)ccc3nc12
GI50 (HOP-18): > 100 µM (inactive) | GI50 (HL-60): > 100 µM (inactive) | GI50 (UACC-257): > 100 µM (inactive) | GI50 (NCI-H460): > 100 µM (inactive) | GI50 (SK-MEL-5): > 100 µM (inactive) | GI50 (ACHN): > 100 µM (inactive) | GI50 (DMS-114): > 100 µM (inactive) | GI50 (SK-MEL-2): > 100 µM (inactive) | GI50 (LXFL 529): > 100 µM (inactive) | GI50 (KM-20L2): > 100 µM (inactive) | GI50 (SNB-78): > 100 µM (inactive) | GI50 (MOLT-4): > 100 µM (inactive) | GI50 (HOP-62): > 100 µM (inactive) | GI50 (COLO 205): > 100 µM (inactive) | GI50 (CAKI-1): > 100 µM (inactive) | GI50 (HCC 2998): > 100 µM (inactive) | GI50 (NCI-H23): > 100 µM (inactive) | GI50 (SNB-19): > 100 µM (inactive) | GI50 (A549): > 100 µM (inactive) | GI50 (U-251): > 100 µM (inactive) | GI50 (RXF 631): > 100 µM (inactive) | GI50 (K562): > 100 µM (inactive) | GI50 (KM12): > 100 µM (inactive) | GI50 (RPMI-8226): > 100 µM (inactive) | GI50 (SF-295): > 100 µM (inactive) | GI50 (UO-31): > 100 µM (inactive) | GI50 (DLD-1): > 100 µM (inactive) | GI50 (A498): > 100 µM (inactive) | GI50 (IGROV-1): > 100 µM (inactive) | GI50 (HT-29): > 100 µM (inactive) | GI50 (EKVX): > 100 µM (inactive) | GI50 (OVCAR-3): > 100 µM (inactive) | GI50 (SF-268): > 100 µM (inactive) | GI50 (SF-539): > 100 µM (inactive) | GI50 (M14): > 100 µM (inactive) | GI50 (SK-MEL-28): > 100 µM (inactive) | GI50 (XF498): > 100 µM (inactive) | GI50 (SK-OV-3): > 100 µM (inactive) | GI50 (HOP-92): > 100 µM (inactive) | GI50 (LOX IMVI): > 100 µM (inactive) | GI50 (OVCAR-5): > 100 µM (inactive) | GI50 (OVCAR-4): > 100 µM (inactive) | GI50 (CCRF-CEM): > 100 µM (inactive) | GI50 (TK-10): > 100 µM (inactive) | GI50 (SW-620): > 100 µM (inactive) | GI50 (HCT-15): > 100 µM | GI50 (Malme-3M): > 100 µM (inactive) | GI50 (NCI-H226): 51.1 µM (inactive) | GI50 (786-0): > 100 µM (inactive) | GI50 (DMS-273): > 100 µM (inactive) | GI50 (OVCAR-8): > 100 µM (inactive) | GI50 (SN12C): > 100 µM (inactive) | GI50 (SNB-75): > 100 µM (inactive) | GI50 (UACC-62): > 100 µM (inactive)

CN(C)CCC(CCN(C)C)=NOC(=O)c1ccccc1
GI50 (HOP-18): > 100 µM (inactive) | GI50 (HL-60): > 100 µM (inactive) | GI50 (UACC-257): > 100 µM (inactive) | GI50 (NCI-H460): > 100 µM (inactive) | GI50 (SK-MEL-5): > 100 µM (inactive) | GI50 (ACHN): > 100 µM (inactive) | GI50 (NCI-H522): > 100 µM (inactive) | GI50 (DMS-114): > 100 µM (inactive) | GI50 (SK-MEL-2): > 100 µM (inactive) | GI50 (LXFL 529): > 100 µM (inactive) | GI50 (KM-20L2): > 100 µM (inactive) | GI50 (MOLT-4): > 100 µM (inactive) | GI50 (HOP-62): > 100 µM (inactive) | GI50 (COLO 205): > 100 µM (inactive) | GI50 (CAKI-1): > 100 µM (inactive) | GI50 (HCC 2998): > 100 µM (inactive) | GI50 (RXF 393): > 100 µM (inactive) | GI50 (NCI-H23): > 100 µM (inactive) | GI50 (SNB-19): > 100 µM (inactive) | GI50 (A549): > 100 µM (inactive) | GI50 (U-251): > 100 µM (inactive) | GI50 (RXF 631): > 100 µM (inactive) | GI50 (K562): > 100 µM (inactive) | GI50 (KM12): > 100 µM (inactive) | GI50 (M19-MEL): > 100 µM (inactive) | GI50 (RPMI-8226): > 100 µM (inactive) | GI50 (SF-295): > 100 µM (inactive) | GI50 (UO-31): > 100 µM (inactive) | GI50 (DLD-1): > 100 µM (inactive) | GI50 (A498): > 100 µM (inactive) | GI50 (IGROV-1): > 100 µM (inactive) | GI50 (HT-29): > 100 µM (inactive) | GI50 (EKVX): > 100 µM (inactive) | GI50 (OVCAR-3): > 100 µM (inactive) | GI50 (SF-268): > 100 µM (inactive) | GI50 (SF-539): > 100 µM (inactive) | GI50 (M14): > 100 µM (inactive) | GI50 (SK-MEL-28): > 100 µM (inactive) | GI50 (XF498): > 100 µM (inactive) | GI50 (SK-OV-3): > 100 µM (inactive) | GI50 (OVCAR-4): > 100 µM (inactive) | GI50 (HCT-116): > 100 µM (inactive) | GI50 (CCRF-CEM): > 100 µM (inactive) | GI50 (TK-10): > 100 µM (inactive) | GI50 (SW-620): > 100 µM (inactive) | GI50 (HCT-15): > 100 µM | GI50 (Malme-3M): > 100 µM (inactive) | GI50 (786-0): > 100 µM (inactive) | GI50 (DMS-273): > 100 µM (inactive) | GI50 (OVCAR-8): > 100 µM (inactive) | GI50 (SN12C): > 100 µM (inactive) | GI50 (SNB-75): > 100 µM (inactive) | GI50 (UACC-62): > 100 µM (inactive)

O=C(/C=C1/NC(=O)CS1)Nc1ccccc1
GI50 (HOP-18): > 100 µM (inactive) | GI50 (HL-60): > 100 µM (inactive) | GI50 (NCI-H460): > 100 µM (inactive) | GI50 (SK-MEL-5): > 100 µM (inactive) | GI50 (NCI-H522): > 100 µM (inactive) | GI50 (DMS-114): > 100 µM (inactive) | GI50 (SK-MEL-2): 89.5 µM (inactive) | GI50 (LXFL 529): > 100 µM (inactive) | GI50 (KM-20L2): > 100 µM (inactive) | GI50 (SNB-78): > 100 µM (inactive) | GI50 (MOLT-4): > 100 µM (inactive) | GI50 (HOP-62): > 100 µM (inactive) | GI50 (COLO 205): > 100 µM (inactive) | GI50 (CAKI-1): > 100 µM (inactive) | GI50 (HCC 2998): > 100 µM (inactive) | GI50 (RXF 393): > 100 µM (inactive) | GI50 (NCI-H23): > 100 µM (inactive) | GI50 (SNB-19): > 100 µM (inactive) | GI50 (A549): > 100 µM (inactive) | GI50 (U-251): > 100 µM (inactive) | GI50 (RXF 631): > 100 µM (inactive) | GI50 (K562): > 100 µM (inactive) | GI50 (KM12): > 100 µM (inactive) | GI50 (M19-MEL): > 100 µM (inactive) | GI50 (RPMI-8226): > 100 µM (inactive) | GI50 (SF-295): > 100 µM (inactive) | GI50 (UO-31): > 100 µM (inactive) | GI50 (DLD-1): > 100 µM (inactive) | GI50 (A498): > 100 µM (inactive) | GI50 (IGROV-1): > 100 µM (inactive) | GI50 (HT-29): > 100 µM (inactive) | GI50 (EKVX): > 100 µM (inactive) | GI50 (OVCAR-3): > 100 µM (inactive) | GI50 (SF-268): > 100 µM (inactive) | GI50 (SF-539): > 100 µM (inactive) | GI50 (M14): > 100 µM (inactive) | GI50 (SK-MEL-28): > 100 µM (inactive) | GI50 (XF498): > 100 µM (inactive) | GI50 (SK-OV-3): > 100 µM (inactive) | GI50 (HOP-92): > 100 µM (inactive) | GI50 (LOX IMVI): > 10 µM (inactive) | GI50 (OVCAR-5): > 100 µM (inactive) | GI50 (OVCAR-4): > 100 µM (inactive) | GI50 (HCT-116): > 100 µM (inactive) | GI50 (CCRF-CEM): > 100 µM (inactive) | GI50 (TK-10): > 100 µM (inactive) | GI50 (SW-620): > 100 µM (inactive) | GI50 (Malme-3M): 30.8 µM (inactive) | GI50 (NCI-H226): > 100 µM (inactive) | GI50 (786-0): > 100 µM (inactive) | GI50 (DMS-273): > 100 µM (inactive) | GI50 (OVCAR-8): > 100 µM (inactive) | GI50 (SN12C): > 100 µM (inactive) | GI50 (SNB-75): 50 µM (inactive) | GI50 (UACC-62): > 100 µM (inactive)
